Experimental data from patent publication US20090247559A1 (Exelixis, Inc., priority 2007, published 2009).
Read-outs that look alike come from different tables or passages of the source.

Experiments:
[1] = molecular target: PIM (PIM-1, PIM-2, and/or PIM-3); test: PIM-1, PIM-2 and PIM-3 inhibition, biochemical chemiluminescence assays (Kinase Glo, IC50 determination); conditions: Table 1 activity class; PIM refers to PIM-1, PIM-2, and/or PIM-3; read-out: PIM IC50 (Activity B)
CK2 = CK2 (Homo sapiens, UniProt P68400); test: CK2 inhibition, biochemical chemiluminescence holoenzyme assay (Kinase Glo, IC50 determination); conditions: Table 1 activity class; symbol given only if active; read-out: CK2 IC50 (Activity C)
Summary of the method: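 Holoenzyme CK2 assay; compounds pre-incubated with substrate and enzyme, then reacted 150 min at 24-27° C. Remaining ATP measured as luminescence with Kinase Glo, and IC50 derived from the signal.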

CDC7 = CDC7 (Homo sapiens, UniProt O00311); test: CDC7 inhibition, biochemical chemiluminescence assay (Kinase Glo, IC50 determination)
Protocol: Characterization of CDC7 Inhibition in a Biochemical Chemiluminesence Assay (IC50 Determination):
The IC50 evaluation of compounds against the CDC7 enzyme was performed in a Chemiluminesence assay utilizing a Greiner 384-well white binding plate format. […] Upon addition of 10 μL of CDC-7 (GB) to the designated well plates and subsequent incubation for ten minutes at ambient temperature, 10 μL of ATP mix in Tris Base was added. Following an incubation period of 90 minutes at ambient temperature (24-27° C.), 20 μL of Kinase Glo (Promega) was added to measure kinase activity by quantitating the amount of ATP remaining in solution. The luminescence was measured following a Luciferase Protocol on either EnVision or Victor plate readers.

[2] = Table 1 activity class, symbol given only if active, read-out: CDC7 IC50 (Activity A)
[3] = compounds in Table 1, read-out: CDC7 IC50 value

CK2, sequence (P68400 whole entry): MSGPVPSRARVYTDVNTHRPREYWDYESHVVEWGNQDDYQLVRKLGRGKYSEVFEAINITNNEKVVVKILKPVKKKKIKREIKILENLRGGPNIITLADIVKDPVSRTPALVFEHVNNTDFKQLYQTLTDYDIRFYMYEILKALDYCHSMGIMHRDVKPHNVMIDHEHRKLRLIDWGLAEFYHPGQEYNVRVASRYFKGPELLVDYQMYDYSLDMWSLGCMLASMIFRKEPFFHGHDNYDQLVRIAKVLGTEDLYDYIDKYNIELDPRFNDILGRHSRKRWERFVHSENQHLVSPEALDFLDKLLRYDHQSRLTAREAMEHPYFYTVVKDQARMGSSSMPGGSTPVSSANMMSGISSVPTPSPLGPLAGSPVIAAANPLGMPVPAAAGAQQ
CK2, sequence (P67870 whole entry partner): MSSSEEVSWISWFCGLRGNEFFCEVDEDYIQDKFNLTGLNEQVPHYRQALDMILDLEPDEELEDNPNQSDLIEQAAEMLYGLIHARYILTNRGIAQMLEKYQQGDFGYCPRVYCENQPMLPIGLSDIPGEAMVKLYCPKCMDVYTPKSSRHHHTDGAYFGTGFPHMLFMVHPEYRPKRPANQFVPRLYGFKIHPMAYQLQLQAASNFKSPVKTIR
CDC7, sequence (O00311 whole entry): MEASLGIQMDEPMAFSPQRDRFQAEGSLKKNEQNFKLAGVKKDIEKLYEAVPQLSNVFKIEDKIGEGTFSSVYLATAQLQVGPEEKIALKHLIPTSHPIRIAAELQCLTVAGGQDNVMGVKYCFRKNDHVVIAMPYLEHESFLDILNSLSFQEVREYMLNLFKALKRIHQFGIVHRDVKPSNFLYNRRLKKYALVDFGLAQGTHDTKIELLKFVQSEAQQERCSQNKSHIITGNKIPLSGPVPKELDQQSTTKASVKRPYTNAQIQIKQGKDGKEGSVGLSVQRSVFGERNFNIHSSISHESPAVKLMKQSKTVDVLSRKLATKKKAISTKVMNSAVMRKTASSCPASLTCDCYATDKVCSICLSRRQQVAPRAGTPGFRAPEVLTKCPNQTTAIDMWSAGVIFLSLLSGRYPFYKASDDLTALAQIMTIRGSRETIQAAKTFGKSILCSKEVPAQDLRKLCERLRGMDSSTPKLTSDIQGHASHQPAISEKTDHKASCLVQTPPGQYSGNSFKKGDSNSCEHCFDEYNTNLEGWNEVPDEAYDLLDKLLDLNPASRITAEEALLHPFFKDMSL
CDC7, sequence (Q9UBU7 whole entry partner): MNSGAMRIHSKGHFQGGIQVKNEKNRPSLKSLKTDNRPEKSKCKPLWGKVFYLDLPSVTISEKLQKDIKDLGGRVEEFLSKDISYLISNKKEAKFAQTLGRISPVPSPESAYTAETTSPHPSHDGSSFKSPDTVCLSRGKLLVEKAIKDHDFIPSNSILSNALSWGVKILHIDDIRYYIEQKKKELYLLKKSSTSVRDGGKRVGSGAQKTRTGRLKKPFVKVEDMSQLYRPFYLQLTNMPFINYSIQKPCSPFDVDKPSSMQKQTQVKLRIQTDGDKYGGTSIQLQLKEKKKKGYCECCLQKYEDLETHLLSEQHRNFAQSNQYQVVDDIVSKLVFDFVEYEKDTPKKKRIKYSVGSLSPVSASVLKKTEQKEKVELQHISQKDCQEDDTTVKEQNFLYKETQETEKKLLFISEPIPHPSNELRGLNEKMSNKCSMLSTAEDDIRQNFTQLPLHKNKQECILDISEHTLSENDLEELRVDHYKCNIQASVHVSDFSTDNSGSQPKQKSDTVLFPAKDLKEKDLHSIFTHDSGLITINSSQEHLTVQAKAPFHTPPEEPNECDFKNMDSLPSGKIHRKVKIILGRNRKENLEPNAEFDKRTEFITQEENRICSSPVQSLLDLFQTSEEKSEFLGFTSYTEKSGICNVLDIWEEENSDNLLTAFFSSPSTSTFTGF

| SMILES | IC50 [1] | IC50 (CK2) | IC50 (CDC7; [2]) | IC50 (CDC7; [3]) | IC50 (CDC7; CDC7 IC50 (Activity A), Table 1 activity class, symbol given only if active) | IC50 (CDC7; CDC7 IC50 value, compounds in Table 1) |
| --- | --- | --- | --- | --- | --- | --- |
| O=c1[nH]c(CN2CCC[C@H](O)C2)nc2c1oc1ccc(Br)cc12 [Compound 404, 8-bromo-2-{[(3S)-3-hydroxypiperidin-1-yl]methyl}[1]benzofuro[3,2-d]pyrimidin-4(3H)-one] | < 10 µM | < 10 µM | < 10 µM | < 0.1 µM | – | – |
| O=c1[nH]c(C2CCCNC2)nc2c1oc1ccc(Br)cc12 (centres unmarked) [Compound 158, 8-Bromo-2-piperidin-3-yl[1]benzofuro[3,2-d]pyrimidin-4(3H)-one] | < 10 µM | < 10 µM | < 10 µM | < 0.1 µM | – | – |
| COc1ccc2oc3c(=O)[nH]c(-c4ccc(F)cc4Cl)nc3c2c1 [Compound 144, 2-(2-chloro-4-fluorophenyl)-8-(methyloxy)[1]benzofuro[3,2-d]pyrimidin-4(3H)-one] | < 10 µM | < 10 µM | < 10 µM | – | – | – |
| CC(C)NCc1nc2c(oc3ccc(Br)cc32)c(=O)[nH]1 [Compound 496, 8-bromo-2-{[(1-methylethyl)amino]methyl}[1]benzofuro[3,2-d]pyrimidin-4(3H)-one] | < 10 µM | < 10 µM | < 10 µM | < 0.1 µM | – | – |
| O=c1[nH]c(C2CCN(Cc3ccncc3)C2)nc2c1oc1ccc(Br)cc12 (centres unmarked) [Compound 290, 8-bromo-2-[1-(pyridin-4-ylmethyl)pyrrolidin-3-yl][1]benzofuro[3,2-d]pyrimidin-4(3H)-one] | < 10 µM | < 10 µM | < 10 µM | – | – | – |
| O=C(Nc1ccc(-c2nc3c(oc4ccc(Br)cc43)c(=O)[nH]2)c(Cl)c1)c1cnccn1 [Compound 323, N-[4-(8-bromo-4-oxo-3,4-dihydro[1]benzofuro[3,2-d]pyrimidin-2-yl)-3-chlorophenyl]pyrazine-2-carboxamide] | < 10 µM | < 10 µM | < 10 µM | – | – | – |
| C#Cc1ccc2oc3c(=O)[nH]c(CN4CC[C@H](O)C4)nc3c2c1 [Compound 458, 8-ethynyl-2-{[(3S)-3-hydroxypyrrolidin-1-yl]methyl}[1]benzofuro[3,2-d]pyrimidin-4(3H)-one] | < 10 µM | < 10 µM | < 10 µM | < 0.1 µM | – | – |
| CN1CCC(NCc2ccc(-c3nc4c(oc5ccc(Br)cc54)c(=O)[nH]3)c(Cl)c2)CC1 [Compound 435, 8-bromo-2-(2-chloro-4-{[(1-methylpiperidin-4-yl)amino]methyl}phenyl)[1]benzofuro[3,2-d]pyrimidin-4(3H)-one] | < 10 µM | < 10 µM | < 10 µM | – | – | – |
| O=c1[nH]c([C@@H]2CC3CCCCC3N2)nc2c1oc1ccc(Cl)cc12 (stereo partly drawn) [Compound 529, 8-chloro-2-[(2S)-octahydro-1H-indol-2-yl][1]benzofuro[3,2-d]pyrimidin-4(3H)-one] | < 10 µM | < 10 µM | – | – | < 10 µM | < 0.1 µM |
| O=c1[nH]c(CN2CCCC2)nc2c1oc1ccc(Cl)cc12 [Compound 5, 8-chloro-2-(pyrrolidin-1-ylmethyl)[1]benzofuro[3,2-d]pyrimidin-4(3H)-one] | < 10 µM | < 10 µM | < 10 µM | < 0.1 µM | – | – |
| Cn1ccnc1C(=O)Nc1ccc(-c2nc3c(oc4ccc(Br)cc43)c(=O)[nH]2)c(Cl)c1 [Compound 390, N-[4-(8-bromo-4-oxo-3,4-dihydro[1]benzofuro[3,2-d]pyrimidin-2-yl)-3-chlorophenyl]-1-methyl-1H-imidazole-2-carboxamide] | < 10 µM | < 10 µM | < 10 µM | – | – | – |
| CNc1cc(-c2nc3c(oc4ccc(Br)cc43)c(=O)[nH]2)c(Cl)cn1 [Compound 265, 8-bromo-2-[5-chloro-2-(methylamino)pyridin-4-yl][1]benzofuro[3,2-d]pyrimidin-4(3H)-one] | < 10 µM | < 10 µM | < 10 µM | – | – | – |
| O=c1[nH]c([C@@H]2C[C@@H](F)CN2)nc2c1oc1ccc(Cl)cc12 [Compound 526, 8-chloro-2-[(2S,4R)-4-fluoropyrrolidin-2-yl][1]benzofuro[3,2-d]pyrimidin-4(3H)-one] | < 10 µM | < 10 µM | < 10 µM | < 0.1 µM | – | – |
| O=c1[nH]c(CNC2CCC2)nc2c1oc1ccc(Br)cc12 [Compound 252, 8-bromo-2-[(cyclobutylamino)methyl][1]benzofuro[3,2-d]pyrimidin-4(3H)-one] | < 10 µM | < 10 µM | < 10 µM | < 0.1 µM | – | – |

The next lines start with results.

| IC50 [1] | IC50 (CK2) | IC50 (CDC7; [2]) | IC50 (CDC7; [3]) | SMILES | IC50 (CDC7; CDC7 IC50 (Activity A), Table 1 activity class, symbol given only if active) | IC50 (CDC7; CDC7 IC50 value, compounds in Table 1) |
| --- | --- | --- | --- | --- | --- | --- |
| < 10 µM | < 10 µM | < 10 µM | – | COc1ccc2oc3c(=O)[nH]c(C4CCCN4)nc3c2c1 (stereo in doubt) [Compound 494, 8-(methyloxy)-2-[(2S)-pyrrolidin-2-yl][1]benzofuro[3,2-d]pyrimidin-4(3H)-one] | – | – |
| < 10 µM | < 10 µM | < 10 µM | < 0.1 µM | O=c1[nH]c(CN2CC[C@H](O)C2)nc2c1oc1ccc(Cl)cc12 [Compound 429, 8-chloro-2-{[(3S)-3-hydroxypyrrolidin-1-yl]methyl}[1]benzofuro[3,2-d]pyrimidin-4(3H)-one] | – | – |
| < 10 µM | < 10 µM | < 10 µM | – | O=C(Nc1ccc(-c2nc3c(oc4ccc(Br)cc43)c(=O)[nH]2)c(Cl)c1)c1cc(Cl)nc(Cl)c1 [Compound 294, N-[4-(8-bromo-4-oxo-3,4-dihydro[1]benzofuro[3,2-d]pyrimidin-2-yl)-3-chlorophenyl]-2,6-dichloropyridine-4-carboxamide] | – | – |
| < 10 µM | < 10 µM | < 10 µM | – | O=c1[nH]c(C[C@H]2CCCNC2)nc2c1oc1ccc(Br)cc12 [Compound 315, 8-bromo-2-[(3R)-piperidin-3-ylmethyl][1]benzofuro[3,2-d]pyrimidin-4(3H)-one] | – | – |
| < 10 µM | < 10 µM | < 10 µM | – | Cc1cc(Br)cc2c1oc1c(=O)[nH]c(CN3CC[C@H](O)C3)nc12 [Compound 434, 8-bromo-2-{[(3S)-3-hydroxypyrrolidin-1-yl]methyl}-6-methyl[1]benzofuro[3,2-d]pyrimidin-4(3H)-one] | – | – |
| < 10 µM | < 10 µM | < 10 µM | – | COc1ccc(C(=O)Nc2ccc(-c3nc4c(oc5ccc(Br)cc54)c(=O)[nH]3)c(Cl)c2)cn1 [Compound 343, N-[4-(8-bromo-4-oxo-3,4-dihydro[1]benzofuro[3,2-d]pyrimidin-2-yl)-3-chlorophenyl]-6-(methyloxy)pyridine-3-carboxamide] | – | – |
| < 10 µM | < 10 µM | < 10 µM | – | CC(C)NCc1ccc(-c2nc3c(oc4ccc(Br)cc43)c(=O)[nH]2)c(Cl)c1 [Compound 430, 8-bromo-2-(2-chloro-4-{[(1-methylethyl)amino]methyl}phenyl)[1]benzofuro[3,2-d]pyrimidin-4(3H)-one] | – | – |
| < 10 µM | < 10 µM | < 10 µM | < 0.1 µM | O=c1[nH]c(CN2CCC(CO)C2)nc2c1oc1ccc(Br)cc12 (centres unmarked) [Compound 287, 8-bromo-2-{[3-(hydroxymethyl)pyrrolidin-1-yl]methyl}[1]benzofuro[3,2-d]pyrimidin-4(3H)-one] | – | – |
| < 10 µM | < 10 µM | < 10 µM | – | O=c1[nH]c(-c2nccs2)nc2c1oc1ccc(Br)cc12 [Compound 86, 8-bromo-2-(1,3-thiazol-2-yl)[1]benzofuro[3,2-d]pyrimidin-4(3H)-one] | – | – |
| < 10 µM | < 10 µM | < 10 µM | – | O=C(Nc1ccc(-c2nc3c(oc4ccc(Br)cc43)c(=O)[nH]2)c(Cl)c1)C1CCOC1 (centres unmarked) [Compound 313, N-[4-(8-bromo-4-oxo-3,4-dihydro[1]benzofuro[3,2-d]pyrimidin-2-yl)-3-chlorophenyl]tetrahydrofuran-3-carboxamide] | – | – |
| < 10 µM | < 10 µM | < 10 µM | – | CN1CCN(c2nc3c(oc4ccc(Br)cc43)c(=O)[nH]2)CC1 [Compound 115, 8-bromo-2-(4-methylpiperazin-1-yl)[1]benzofuro[3,2-d]pyrimidin-4(3H)-one] | – | – |
| < 10 µM | < 10 µM | < 10 µM | – | CN(C)CCNc1cc(-c2nc3c(oc4ccc(Br)cc43)c(=O)[nH]2)c(Cl)cn1 [Compound 283, 8-bromo-2-(5-chloro-2-{[2-(dimethylamino)ethyl]amino}pyridin-4-yl)[1]benzofuro[3,2-d]pyrimidin-4(3H)-one] | – | – |
| < 10 µM | < 10 µM | < 10 µM | – | O=c1[nH]c(-c2cc([N+](=O)[O-])ccc2Cl)nc2c1oc1ccc(Br)cc12 [Compound 126, 8-bromo-2-(2-chloro-5-nitrophenyl)[1]benzofuro[3,2-d]pyrimidin-4(3H)-one] | – | – |
| < 10 µM | < 10 µM | < 10 µM | – | COc1cccc2oc3c(=O)[nH]c(CN4CC[C@H](O)C4)nc3c12 [Compound 448, 2-{[(3S)-3-hydroxypyrrolidin-1-yl]methyl}-9-(methyloxy)[1]benzofuro[3,2-d]pyrimidin-4(3H)-one] | – | – |
| < 10 µM | < 10 µM | < 10 µM | < 0.1 µM | CC1(O)CCN(Cc2nc3c(oc4ccc(Br)cc43)c(=O)[nH]2)C1 (centres unmarked) [Compound 346, 8-bromo-2-[(3-hydroxy-3-methylpyrrolidin-1-yl)methyl][1]benzofuro[3,2-d]pyrimidin-4(3H)-one] | – | – |
